Where two headings read alike, the source gives them in different places.
Columns and labels:
[1] = in humans; cited from earlier work
[2] = Pharmacokinetic evaluation after subcutaneous injection into rats; assay type: in vivo
Method: The pharmacokinetic evaluation of the GS-441524-containing PLGA microspheres of Example F3 according to the disclosure was carried out. Rats as test animals were randomly divided into test and control groups, with 5 animals in each group, and raised under the same conditions while predetermined amounts of solid food and water were supplied for 7 days. The rats were fasted for 12 hours before testing, and then used for testing.
The test group was subcutaneously administered GS-441524 at a dose corresponding to 28 mg/kg by using the PLGA microspheres of Example F3 of the disclosure, and the control group was subcutaneously administered 28 mg/kg GS-441524 alone. Approximately 300 μL of blood was collected by retro-orbital bleeding 1, 2, 4, 8, 12, 24, 48, 72, 96, 120, and 144 hours after the subcutaneous injection to the rats. Each of the obtained samples was centrifuged at 15,000 rpm for 5 minutes to separate the plasma, and then stored at −70° C. before analysis.
Plasma sample pre-treatment was performed using a deproteination method. After 100 μL of a plasma sample was taken, 200 μL of methanol (the internal standard substance 10 ng/MI verapamil) was added thereto, followed by mixing for 10 minutes and then extraction. The extract was centrifuged at 17,000 rpm for 10 minutes, and then the supernatant was collected and analyzed using LC-MS/MS to quantify GS-441524 in the blood.

[3] = rat, plasma, sc, 28 mg/kg GS-441524

Compound: N#C[C@@]1(c2ccc3c(N)ncnn23)O[C@H](CO)[C@@H](O)[C@H]1O [GS-441524, (2R,3R,4S,5R)-2-(4-aminopyrrolo[2,1-f][1,2,4]triazin-7-yl)-3,4-dihydroxy-5-(hydroxymethyl) oxolane-2-carbonitrile]
- half-life [1]: about 24 hours
- Cl ([2]; 28 mg/kg GS-441524): 17.32 ± 9.32 mL/min/kg
- Vz ([2]; 28 mg/kg GS-441524): 81.261 ± 84.077 L/kg
- Cmax [2, 3]: 8170 ± 4080 ng/mL
- half-life [2, 3]: 61.5 ± 66.2 h
- AUC(0-t) ([2]; rat, plasma, sc, 28 mg/kg GS-441524, read-out: AUC0→144): 31600 ± 14300 ng·h/mL

From patent publication US20260165968A1, “SUSTAINED-RELEASE PLGA MICROSPHERE CONTAINING GS-441524, AND METHOD FOR PRODUCING SAME” (THE INDUSTRY & ACADEMIC COOPERATION IN CHUNGNAM NATIONAL …, priority 2022, published 2026)
